According to ChEMBL document CHEMBL1201862, “PubChem BioAssay data set” (2004):
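Exposure lasted 48 hours, with cells grown in 96-well plates and compounds tested at five concentrations. GI50: concentration for 50% inhibition of growth.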 Activity calls are given as the source filed them. No stated cut-off is given here; in the data, active = GI50 up to about 1.1 µM and inactive = higher.

Legend:
Assay in all cases: NCI anticancer screen, dose series, 48 h
KM12 = tested on: KM12
SNB-78 = tested on: SNB-78
A498 = tested on: A498
U-251 = tested on: U-251
SNB-75 = tested on: SNB-75
IGROV-1 = tested on: IGROV-1
OVCAR-4 = tested on: OVCAR-4
A549 = tested on: A549
HCT-15 = tested on: HCT-15
MDA-MB-231 = tested on: MDA-MB-231
SK-MEL-28 = tested on: SK-MEL-28
CAKI-1 = tested on: CAKI-1
HT-29 = tested on: HT-29
UACC-62 = tested on: UACC-62
OVCAR-8 = tested on: OVCAR-8
SF-295 = tested on: SF-295
NCI-H23 = tested on: NCI-H23
LOX IMVI = tested on: LOX IMVI
HCT-116 = tested on: HCT-116
K562 = tested on: K562

Measured: GI50

CCOC(=O)N1CCc2cc(OC)c(OC)c3c2c1cc1cc(OC)c(OC)cc13
active: KM12 0.695 µM | HT-29 0.492 µM | UACC-62 0.94 µM | SF-295 0.927 µM
inactive: SNB-78 16.1 µM | A498 2.21 µM | U-251 2.7 µM | SNB-75 1.37 µM | IGROV-1 4.57 µM | OVCAR-4 10.5 µM | A549 1.7 µM | MDA-MB-231 5.96 µM | SK-MEL-28 4.19 µM | CAKI-1 2.51 µM | OVCAR-8 4.8 µM | NCI-H23 3.95 µM | LOX IMVI 2.28 µM | HCT-116 1.22 µM | K562 2.91 µM
0.914 µM: HCT-15

N[C@H]1C2C3CC4C5CC(C42)C1(c1ccccc1)C53 (stereo not given in full)
> 100 µM: HCT-15
inactive: KM12 > 100 µM | SNB-78 > 100 µM | A498 > 100 µM | U-251 > 100 µM | SNB-75 > 100 µM | IGROV-1 > 100 µM | OVCAR-4 > 100 µM | A549 > 100 µM | SK-MEL-28 > 100 µM | CAKI-1 > 100 µM | HT-29 62.5 µM | UACC-62 > 100 µM | OVCAR-8 > 100 µM | SF-295 > 100 µM | NCI-H23 > 100 µM | LOX IMVI > 100 µM | HCT-116 > 100 µM | K562 > 100 µM

CCCCC/C=C1\CCC(CN2CCOCC2)C1=O (stereo not given)
5.32 µM: HCT-15
inactive: KM12 3.49 µM | SNB-78 12.6 µM | A498 17.7 µM | U-251 10.8 µM | SNB-75 14.8 µM | IGROV-1 13.8 µM | OVCAR-4 16.2 µM | A549 20.7 µM | MDA-MB-231 4.7 µM | SK-MEL-28 7.91 µM | CAKI-1 5.28 µM | HT-29 10.9 µM | UACC-62 12.4 µM | OVCAR-8 7.26 µM | SF-295 16.8 µM | NCI-H23 11.2 µM | LOX IMVI 4.84 µM | HCT-116 9.35 µM | K562 2.36 µM

C[C@]12CCC(=O)C(O)=C1CC[C@@H]1C2CC[C@]2(C)NC(=O)CCC12 (stereo not given in full)
inactive: KM12 > 100 µM | SNB-78 > 100 µM | A498 > 100 µM | U-251 > 100 µM | SNB-75 > 100 µM | IGROV-1 > 100 µM | OVCAR-4 > 100 µM | A549 > 100 µM | SK-MEL-28 > 100 µM | CAKI-1 > 100 µM | HT-29 > 100 µM | UACC-62 > 100 µM | OVCAR-8 > 100 µM | SF-295 > 100 µM | NCI-H23 > 100 µM | LOX IMVI > 100 µM | HCT-116 > 100 µM | K562 > 100 µM
70.6 µM: HCT-15

N=C(N)NCCCS(=O)(=O)Nc1ccc(Nc2c3ccccc3nc3cc([N+](=O)[O-])ccc23)cc1
> 85.9 µM: HCT-15
inactive: KM12 10.2 µM | SNB-78 21.4 µM | A498 17.5 µM | U-251 4.05 µM | SNB-75 13 µM | IGROV-1 18.4 µM | OVCAR-4 16.6 µM | A549 5.31 µM | MDA-MB-231 35.2 µM | SK-MEL-28 18.1 µM | CAKI-1 40.8 µM | HT-29 16.9 µM | UACC-62 12.1 µM | OVCAR-8 20.6 µM | SF-295 20.3 µM | NCI-H23 4.65 µM | LOX IMVI 16.4 µM | HCT-116 16.5 µM | K562 22.3 µM

CC1=[N+]([O-])c2ccccc2C(=O)C1=O
inactive: KM12 > 100 µM | SNB-78 > 100 µM | A498 > 100 µM | U-251 99.8 µM | SNB-75 > 100 µM | IGROV-1 > 100 µM | OVCAR-4 68.5 µM | A549 > 100 µM | SK-MEL-28 > 100 µM | CAKI-1 > 100 µM | HT-29 > 100 µM | UACC-62 55.6 µM | OVCAR-8 > 100 µM | SF-295 > 100 µM | NCI-H23 92.9 µM | LOX IMVI 41 µM | HCT-116 48 µM | K562 29.1 µM
56.4 µM: HCT-15

COc1cccc2c1C(=O)c1c(O)c3c(c(O)c1C2=O)C[C@@](O)(C(=O)CO)C[C@@H]3OC1CC(N)C(OC)C(C)O1 (stereo not given in full)
1.98 µM: HCT-15
active: KM12 0.0968 µM | SNB-78 0.207 µM | A498 0.116 µM | U-251 0.0224 µM | SNB-75 0.0282 µM | IGROV-1 0.108 µM | OVCAR-4 0.458 µM | A549 0.0269 µM | MDA-MB-231 0.474 µM | SK-MEL-28 0.315 µM | CAKI-1 0.054 µM | HT-29 0.0559 µM | UACC-62 0.0461 µM | OVCAR-8 0.0289 µM | SF-295 0.0206 µM | NCI-H23 0.0605 µM | LOX IMVI 0.0228 µM | HCT-116 0.0282 µM | K562 0.0284 µM

CN(C)C(=S)/N=c1\ssc(=S)n1Cc1ccccn1
active: K562 0.748 µM
2.01 µM: HCT-15
inactive: KM12 1.14 µM | SNB-78 30.2 µM | A498 4.84 µM | U-251 3.89 µM | SNB-75 4.48 µM | IGROV-1 7.29 µM | OVCAR-4 14 µM | A549 3.85 µM | SK-MEL-28 4.65 µM | CAKI-1 6.93 µM | HT-29 2.78 µM | UACC-62 2.41 µM | OVCAR-8 4.54 µM | SF-295 3.8 µM | NCI-H23 3.62 µM | LOX IMVI 5.06 µM | HCT-116 2.87 µM

COC(=O)[C@@H]1C[C@H](c2ccc(OC)c(OC)c2)OC1=O.COC(=O)[C@H]1C[C@H](c2ccc(OC)c(OC)c2)OC1=O
inactive: KM12 > 100 µM | SNB-78 > 100 µM | A498 > 100 µM | U-251 > 100 µM | SNB-75 > 100 µM | IGROV-1 > 100 µM | OVCAR-4 > 100 µM | A549 > 100 µM | SK-MEL-28 > 100 µM | CAKI-1 > 100 µM | HT-29 > 100 µM | UACC-62 > 100 µM | OVCAR-8 > 100 µM | SF-295 > 100 µM | NCI-H23 > 100 µM | LOX IMVI > 100 µM | HCT-116 > 100 µM | K562 > 100 µM
> 100 µM: HCT-15

COC(COC(N)=O)C1=C(N2CC2)C(=O)C(C)=C(N2CC2)C1=O (stereo not given) [CARBOQUONE]
0.0594 µM: HCT-15
active: KM12 0.122 µM | SNB-78 0.574 µM | A498 0.0904 µM | U-251 0.0366 µM | SNB-75 0.0246 µM | IGROV-1 0.197 µM | OVCAR-4 0.126 µM | A549 0.0185 µM | MDA-MB-231 0.292 µM | SK-MEL-28 0.172 µM | CAKI-1 < 0.0119 µM | HT-29 0.0342 µM | UACC-62 < 0.0156 µM | OVCAR-8 0.0318 µM | SF-295 0.0178 µM | NCI-H23 < 0.0148 µM | LOX IMVI < 0.0144 µM | HCT-116 0.0284 µM | K562 0.0352 µM
